According to patent US7413895B2, “DNA encoding neutral amino acid transporter” (Japan Science and Technology Corporation, priority 1998, dated 2008):

How the values were obtained:
[1] = tested on: rat liver cell line where LAT1 was highly expressed; experiment: Cell proliferation of cultured rat liver cell line, Cell Counting Kit-8; assay type: cell-based; conditions: 20 mM added to William's medium, incubation for 48 hours
Method: A rat liver cell line where LAT1 was highly expressed was incubated on a William's medium, 20 mM of D-leucine or BCH which suppressed the incorporation mediated by LAT1 were added to the medium and, by means of an incubation for 48 hours, cell numbers were investigated using a Cell Counting Kit-8 (manufactured by Dojindo Laboratories). The cell numbers were measured as an absorption at 450 nm (O.D. 450).

CCRF-SB cells = experiment: Proliferation of CCRF-SB cells, effect of BCH; assay type: cell-based, human; conditions: expression of 4F2hc not detected
[2] = tested on: T24 cells derived from human bladder cancer; experiment: Proliferation of T24 cells with or without BCH; assay type: cell-based; conditions: 20 mM of BCH, 5 days, cell numbers counted
Method: (§1) T24 cells derived from human bladder cancer were incubated and maintained in an Eagle's minimal essential medium containing 10% of fetal bovine serum. Human Daudi cells were incubated and maintained in an RPMI medium containing 20% of fetal bovine serum. T24 cells or Daudil cells were incubated in a 24-well plate (800 cells/well) for 5 days in a medium with or without 20 mM of BCH and the cell numbers were counted.

[3] = target: T1, human amino acid transporter LAT1 (Homo sapiens, UniProt Q01650); experiment: Incorporation of 14C-labeled amino acids into oocytes co-expressing human LAT1 and human 4F2hc; assay type: cell-based; design: expressed in transfected cells; conditions: summary statement of the disclosure
T1 sequence (Q01650 whole entry): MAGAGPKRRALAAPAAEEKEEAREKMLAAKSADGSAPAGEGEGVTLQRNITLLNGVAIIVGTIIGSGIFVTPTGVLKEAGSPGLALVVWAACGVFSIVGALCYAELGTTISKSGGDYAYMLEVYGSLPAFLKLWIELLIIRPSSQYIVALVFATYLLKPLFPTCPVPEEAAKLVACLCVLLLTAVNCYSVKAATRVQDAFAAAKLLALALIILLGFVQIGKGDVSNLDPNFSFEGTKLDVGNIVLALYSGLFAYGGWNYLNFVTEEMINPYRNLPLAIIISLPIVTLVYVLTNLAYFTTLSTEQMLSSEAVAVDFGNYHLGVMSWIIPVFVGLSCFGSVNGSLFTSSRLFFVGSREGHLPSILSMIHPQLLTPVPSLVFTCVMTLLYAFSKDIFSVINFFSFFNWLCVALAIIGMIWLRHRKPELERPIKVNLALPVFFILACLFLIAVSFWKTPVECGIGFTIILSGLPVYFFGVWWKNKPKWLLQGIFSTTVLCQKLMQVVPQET
T1 sequence (as listed by the source partner): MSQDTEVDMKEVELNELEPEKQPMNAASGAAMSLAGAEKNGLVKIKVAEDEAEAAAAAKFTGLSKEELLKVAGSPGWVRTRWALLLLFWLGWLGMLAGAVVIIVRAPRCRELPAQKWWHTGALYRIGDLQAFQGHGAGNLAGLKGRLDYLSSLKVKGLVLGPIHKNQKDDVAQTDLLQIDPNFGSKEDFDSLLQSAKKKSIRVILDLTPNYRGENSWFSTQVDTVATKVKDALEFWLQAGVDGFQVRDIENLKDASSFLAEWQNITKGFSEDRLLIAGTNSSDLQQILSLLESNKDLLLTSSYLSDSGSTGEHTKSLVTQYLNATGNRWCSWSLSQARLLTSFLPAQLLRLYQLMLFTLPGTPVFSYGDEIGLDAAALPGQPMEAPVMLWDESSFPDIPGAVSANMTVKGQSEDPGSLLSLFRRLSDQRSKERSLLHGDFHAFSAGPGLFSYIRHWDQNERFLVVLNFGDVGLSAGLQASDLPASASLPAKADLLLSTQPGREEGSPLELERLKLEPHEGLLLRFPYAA

[4] = tested on: T24 cells derived from human bladder cancer; experiment: Inhibition of 14C-leucine incorporation by T24 cells by amino acids and similar substances; assay type: cell-based; conditions: 14C-leucine 20 μM, 2 mM unlabeled compound
[5] = target: T1, human amino acid transporter LAT1; experiment: Competitive antagonism test: incorporation of 14C-labeled leucine or phenylalanine into oocytes co-expressing human LAT1 and human 4F2hc in the presence of test substance; assay type: cell-based; design: expressed in transfected cells; conditions: 14C-labeled leucine 20 μM, test substance 2 mM, 30 minutes, choline chloride uptake solution
[6] = target: rat neutral amino acid transporter LAT1 (Rattus norvegicus, UniProt Q63016); experiment: Inhibition of 14C-leucine incorporation into oocytes injected with rat LAT1 and rat 4F2hc cRNA by amino acids and similar substances; assay type: cell-based; design: expressed in transfected cells; host or cells: oocytes (Xenopus laevis by the cited method of Kanai and Hediger) injected with rat LAT1 cRNA and rat 4F2hc cRNA; conditions: rat LAT1/rat 4F2hc oocytes; 14C-leucine 20 μM, 2 mM unlabeled compound, choline uptake solution
rat neutral amino acid transporter LAT1, sequence (Q63016 whole entry): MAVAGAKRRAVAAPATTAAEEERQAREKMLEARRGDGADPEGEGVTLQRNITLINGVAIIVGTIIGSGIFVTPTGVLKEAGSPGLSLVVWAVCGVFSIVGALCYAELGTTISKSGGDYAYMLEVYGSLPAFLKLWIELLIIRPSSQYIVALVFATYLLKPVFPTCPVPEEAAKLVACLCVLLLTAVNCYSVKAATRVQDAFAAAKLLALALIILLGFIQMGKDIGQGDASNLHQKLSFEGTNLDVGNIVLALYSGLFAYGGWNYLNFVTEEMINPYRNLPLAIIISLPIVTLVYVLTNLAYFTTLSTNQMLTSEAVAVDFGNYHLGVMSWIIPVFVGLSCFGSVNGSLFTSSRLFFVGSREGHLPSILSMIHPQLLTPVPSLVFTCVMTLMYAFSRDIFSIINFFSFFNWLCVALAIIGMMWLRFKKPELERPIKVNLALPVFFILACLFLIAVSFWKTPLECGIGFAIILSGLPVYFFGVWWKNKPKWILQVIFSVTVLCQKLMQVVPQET
rat neutral amino acid transporter LAT1, sequence (Q794F9 whole entry partner): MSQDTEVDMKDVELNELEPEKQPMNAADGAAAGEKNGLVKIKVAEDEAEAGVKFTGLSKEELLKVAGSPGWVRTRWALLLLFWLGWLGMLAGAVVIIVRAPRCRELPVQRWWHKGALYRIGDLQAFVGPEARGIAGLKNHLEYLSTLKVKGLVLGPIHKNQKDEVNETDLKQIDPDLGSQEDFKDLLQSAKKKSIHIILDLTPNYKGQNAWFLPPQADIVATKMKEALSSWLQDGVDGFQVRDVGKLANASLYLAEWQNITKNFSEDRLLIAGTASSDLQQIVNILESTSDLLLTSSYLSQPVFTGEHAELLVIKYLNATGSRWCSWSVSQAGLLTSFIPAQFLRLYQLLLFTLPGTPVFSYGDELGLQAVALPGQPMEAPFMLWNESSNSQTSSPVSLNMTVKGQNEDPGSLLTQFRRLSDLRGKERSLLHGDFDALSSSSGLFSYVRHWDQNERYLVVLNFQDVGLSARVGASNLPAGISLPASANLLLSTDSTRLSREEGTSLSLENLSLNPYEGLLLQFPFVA

Mouse sarcoma 180 cells = experiment: Survival of ICR mouse after intraperitoneal transplantation of mouse sarcoma 180 cells; assay type: in vivo; conditions: male ICR mouse, sarcoma 180 cells intraperitoneally transplanted, 300 mg/kg for ten days, observation for 19 days
Method: Mouse sarcoma 180 cells were intraperitoneally transplanted (1×10^6) to male ICR mouse and, from the next day of the transplantation, BCH which was a inhibitor for the amino acid transporter, D-Leu having a inhibiting effect on amino acid transporter and D-Ala having no inhibiting action thereon were administered at the dose of 300 mg/kg for ten days. After the transplantation, it was confirmed every day whether the mouse was dead or alive.

Human Daudi cells = experiment: Proliferation of Daudi cells with or without BCH; assay type: cell-based; conditions: 20 mM of BCH, 5 days, cell numbers counted
Method: as §1

[7] = tested on: T24 cells derived from human bladder cancer; experiment: Inhibiting mode of leucine incorporation by T24 cells by BCH, double reciprocal plots; assay type: cell-based
Method: T24 cells derived from human bladder cancer were incubated and maintained in an Eagle's minimal essential medium containing 10% of fetal bovine serum. A test for the incorporation of amino acids into T24 cells was carried out by incubating the T24 cells on a 24-well plate and finished when the state became confluent. The amino acid incorporation test was started by removing the incubating solution and adding a Dulbecco's PBS (manufactured by Gibco) containing ^14C-amino acid and finished by removing it, cooling with ice and washing with a Dulbecco's PBS. After washing, the above was dissolved in 0.1N NaOH and the radioactivity was measured by a liquid scintillation counter.
Dependency of the ^14C-leucine incorporation by T24 cells on the concentration was measured in the absence of BCH, in the presence of 50 μM of BCH and in the presence of 100 μM of BCH and the inhibiting mode was investigated by means of double reciprocal plots.

P30/OHK cells = experiment: Proliferation of P30/OHK cells, effect of BCH; assay type: cell-based, human; conditions: expression of 4F2hc not detected
[8] = tested on: cells where both LAT1 and 4F2hc were strongly expressed; experiment: Proliferation of cells where both LAT1 and 4F2hc were strongly expressed, effect of BCH; assay type: cell-based, human
Method: as §1

NC1(C(=O)O)CC2CCC1C2 (stereo not shown) [BCH, 2-amino-2-norbornane-carboxylic acid]
cell numbers (O.D. 450) compared with control group [1]: a reduction in the cell numbers was noted
effect on proliferation of CCRF-SB cells (CCRF-SB cells): weak
suppression of proliferation of T24 cells [2]: highly suppressed
incorporation in a cell in which human LAT1 and human 4F2hc are co-expressed [3]: confirmed
inhibition of incorporation of 14C-leucine by T24 cells [4]: strongly inhibited
inhibition of incorporation of 14C-labeled leucine mediated by the human LAT1 [5]: inhibited
inhibition of incorporation of 14C-leucine mediated by LAT1 [6]: inhibited
survival effect (Mouse sarcoma 180 cells): significant survival effect
suppression of proliferation of Daudi cells (Human Daudi cells): rarely showed a suppressing effect
inhibiting mode of leucine incorporation ([7]; 0, 50 μM and 100 μM of BCH, double reciprocal plots): competitive inhibition
Ki ([7]; 14C-leucine incorporation, 50 μM and 100 μM of BCH): 156 µM
effect on proliferation of P30/OHK cells (P30/OHK cells): weak
suppressing effect on proliferation [8]: strong suppressing effect
